Calls of active or inactive are those of the source.
Tests used:
[1] = HEp-2 cell cytotoxicity, dose response, cytotoxicity control for RSV inhibitor project, HTS (AID 2410); format: functional; conditions: human respiratory syncytial virus
Protein skinhead-1 = molecular target: T1, Protein skinhead-1 (Caenorhabditis elegans, UniProt P34707); format: functional
T1 sequence (P34707 whole entry): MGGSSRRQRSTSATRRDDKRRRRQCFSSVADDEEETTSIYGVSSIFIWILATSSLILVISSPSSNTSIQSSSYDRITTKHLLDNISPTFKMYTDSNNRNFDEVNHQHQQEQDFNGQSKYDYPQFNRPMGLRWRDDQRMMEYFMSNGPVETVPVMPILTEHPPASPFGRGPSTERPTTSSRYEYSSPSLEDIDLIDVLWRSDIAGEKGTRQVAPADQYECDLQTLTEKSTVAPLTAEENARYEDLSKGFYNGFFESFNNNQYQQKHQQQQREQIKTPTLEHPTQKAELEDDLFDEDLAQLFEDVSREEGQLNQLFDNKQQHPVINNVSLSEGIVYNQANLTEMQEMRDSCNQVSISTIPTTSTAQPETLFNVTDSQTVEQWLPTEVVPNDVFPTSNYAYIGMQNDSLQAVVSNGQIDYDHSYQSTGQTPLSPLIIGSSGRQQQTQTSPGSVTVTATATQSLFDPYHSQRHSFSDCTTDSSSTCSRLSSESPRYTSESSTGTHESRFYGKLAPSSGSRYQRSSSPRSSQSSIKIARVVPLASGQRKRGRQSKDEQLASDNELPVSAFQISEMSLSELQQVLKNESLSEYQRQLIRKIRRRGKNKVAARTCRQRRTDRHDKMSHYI

cells = format: functional
[2] = molecular target: FAD-linked sulfhydryl oxidase ALR (Homo sapiens, UniProt P55789); test: inhibitors of human ALR sulfhydryl oxidase, dose response, biochemical, H2O2 detection, luminescence, cherry-pick (AID 493248)
FAD-linked sulfhydryl oxidase ALR, sequence (P55789 whole entry): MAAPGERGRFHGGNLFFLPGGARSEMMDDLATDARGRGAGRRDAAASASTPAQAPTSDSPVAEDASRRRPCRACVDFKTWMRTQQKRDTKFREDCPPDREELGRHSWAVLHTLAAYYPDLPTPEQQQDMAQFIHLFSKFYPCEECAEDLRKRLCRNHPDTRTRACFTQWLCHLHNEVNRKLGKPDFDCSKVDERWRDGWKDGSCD

[3] = microbe, parasite or virus in culture; format: functional; conditions: Mycobacterium tuberculosis
[4] = molecular target: T2, Heat shock factor protein 1 (Mus musculus, UniProt P38532); test: HSF1 potentiators in luciferase reporter cells, confirmation, cell-based, NIH3T3, luminescence, dose retest (AID 435004); format: functional;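 also: stress induced by proteasome inhibitor MG132 added 30 min after compound; luciferase reporter driven by HSF1 response element in NIH3T3 cells; actives raise luminescence as potentiators of the MG132 stress response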
T2 sequence (P38532 whole entry): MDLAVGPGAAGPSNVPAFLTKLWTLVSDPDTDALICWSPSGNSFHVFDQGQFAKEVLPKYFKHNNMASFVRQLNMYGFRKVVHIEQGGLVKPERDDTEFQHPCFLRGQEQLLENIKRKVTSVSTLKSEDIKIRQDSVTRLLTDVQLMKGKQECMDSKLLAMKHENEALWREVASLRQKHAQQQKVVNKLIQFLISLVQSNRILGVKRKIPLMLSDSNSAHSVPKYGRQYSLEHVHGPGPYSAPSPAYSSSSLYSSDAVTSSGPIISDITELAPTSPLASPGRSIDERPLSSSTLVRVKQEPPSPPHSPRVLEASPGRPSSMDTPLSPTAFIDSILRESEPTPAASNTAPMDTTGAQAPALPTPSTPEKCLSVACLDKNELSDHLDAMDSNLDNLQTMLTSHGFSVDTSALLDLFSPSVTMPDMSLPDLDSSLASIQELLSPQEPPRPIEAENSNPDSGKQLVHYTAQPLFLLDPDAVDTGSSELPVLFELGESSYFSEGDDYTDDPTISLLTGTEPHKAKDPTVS

[5] = Luminescence Cell-Based Dose Response HTS to Identify Activators of Luciferase Translation or Activity in H4 […] Cells. [Related pubchem assays: 1829 (Project Summary), 1814 (Primary HTS)]; format: functional

Cc1cccc(NC(=O)Cc2coc3ccc4ccccc4c23)n1
CC50 [1]: 33.8 µM (active)

COc1ccc(CN2CCN(c3ccccc3F)CC2)cc1O
IC50 (Protein skinhead-1): > 100 µM (inactive)

COc1ccc(C(=O)OCn2nnc3ccccc3c2=O)cc1[N+](=O)[O-]
IC50 (cells): 7.55 µM (active)

COCC(=O)NCc1ccc2c(c1)cc(C)n2C
IC50 (Protein skinhead-1): > 100 µM (inactive)

O=C(NCc1cccs1)C(=O)NCC(c1ccco1)N1CCN(c2ccccc2)CC1 (centres undefined)
AC50 [2]: 0.01 µM (active)

COc1cc(NC(=O)c2ccc(C(C)(C)C)cc2)c(OC)cc1NC(=O)CN1CCCCC1
CC50 [3]: > 40 µM (active)

O=C(CCNc1ccc(Cl)cc1)c1cccs1
IC50 (cells): 25.5 µM (active)

Cn1nnnc1SCC(=O)N1CCN(c2cccc(Cl)c2)CC1
IC50 (Protein skinhead-1): > 100 µM (inactive)

CCN(CC)C(=O)Oc1ccc(Br)c2ccccc12
IC50 (Protein skinhead-1): > 100 µM (inactive)

C=Cc1cccc(NC(=O)COc2ccccc2)c1
IC50 (cells): > 50 µM (active)

Nc1n[nH]c(SCC(=O)Nc2ccc([N+](=O)[O-])cc2Br)n1
EC50 [4]: > 260 µM (inactive)

Cc1ccc(NC(=S)N(CCCN2CCCC2)Cc2cccn2Cc2ccc(Cl)cc2)cc1C
CC50 [3]: 17.7 µM (active)

N#Cc1c(-c2ccc(Cl)cc2)ccn2nc(C3CCCCC3)nc12
EC50 [5]: 6.98 µM (active)

O=C(Nc1ccc(-c2nnc(-c3ccccc3)o2)cc1)c1ccc(Br)o1
IC50 (Protein skinhead-1): 76.3 µM (inactive)

CSc1nsc(/C=C/Nc2ccc(O)cc2C)c1C#N
CC50 [3]: > 40 µM (active)

COC(=O)c1ccc(-c2ccco2)n1Cc1nc(-c2ccc(OC)c(OC)c2)oc1C
CC50 [1]: 34 µM (active)

COc1ccc(-c2ccnc3nc(N4CCN(c5ccccc5)CC4)nn23)cc1
CC50 [3]: > 40 µM (active)

OCCOCCn1c(CCNc2nc(-c3ccc(Cl)cc3)cs2)nc2cc(Cl)c(Cl)cc21
CC50 [1]: 14.3 µM (active)

Nc1n[nH]c(N2CCN(c3ccc(Cl)cc3)CC2)n1
AC50 [2]: 0.325 µM (active)

— ChEMBL document CHEMBL1201862, “PubChem BioAssay data set” (2004)
